Measured values published in US5366726A (priority 1992, dated 1994).
Entries after “also recorded” stand apart in the source; their conditions may differ. Read-outs that look alike come from different tables or passages of the source.

Key:
[1] = system: Pneumocystis carinii; test: Example 6: prevention of PCP, different dosages and regimens; type: in vivo, human; details: of 372, at least one treatment
From the text: A total of 438 participants were selected on the basis of seropositivity for HIV, and were stratified on the basis of (i) prior PCP (n=250), (ii) Kaposi's sarcoma (n=59) or (iii) ARC (n=129).

[2] = design: species or system human; details: in vivo
From the text: Chest radiographs and arterial blood gas tensions were obtained as clinically indicated.
Liver function SGOT or SGPT
Rash with fever or mucositis
Cough cough or bronchospasm un-

[3] = system: Pneumocystis carinii; test: Example 1: treatment of P. carinii pneumonia, inhaled vs intravenous pentamidine; type: in vivo, human
[4] = parenteral pentamidine, TMP-SMX; cited from earlier work
[5] = Example 8: adverse effects in the clinical trial; type: in vivo, human
From the text: Participants were enrolled in one of 13 treatment centers located in the San Francisco Bay area.
Each treatment was supervised by a respiratory therapist who noted any immediate adverse effects and administered a bronchodilator if needed for severe coughing or bronchospasm.
Participants were questioned at baseline and at each visit about concomitant medications, intercurrent illnesses, and symptoms. Information from participants, their physicians, hospital records, microbiology departments, and county health departments were used to determine status.

[6] = Example 1: toxicity of inhaled vs intravenous pentamidine in patients; details: for major toxicity: neutropenia
[7] = human, in vivo
[8] = cited from earlier work
[9] = system: Pneumocystis carinii; details: cited from earlier work; for Vital Capacity: percent predicted
[10] = system: Pneumocystis carinii; type: in vivo, human
[11] = Respirgard or UltraVent, any dose or duration
[12] = system: Pneumocystis carinii; test: Example 7: prevention of PCP, 300 mg twice per month vs 600 mg once per month; type: in vivo, human
From the text: (§1) Five patients who developed PCP within 28 days were not evaluated. One hundred (66%) of the patients were concurrently receiving AZT, and 42 (28%) had experienced one prior episode of PCP.

[13] = inhaled, animals; cited from earlier work
[14] = design: species or system human; details: in vivo; remark: listed apart in the source
From the text: as §1

N=C(N)c1ccc(OCCCCCOc2ccc(C(=N)N)cc2)cc1 [pentamidine, p,p'-(pentamethylenedioxy)dibenzamidine]
participants who experienced relapse [1]: 17
severe adverse reactions [2]: No patient developed any severe adverse reactions
successfully treated patients with relapses ([3]; inhaled): three of ten
Outcome of therapy ([3]; inhaled, 4 mg/Kg, UltraVent, single patients): success; also recorded: failed
patients readmitted and treated for P. carinii pneumonia after discharge ([3]; inhaled, at one, three and two months): Three
Time to discharge, all patients in group ([3]; inhaled, based on 9 successful patients): 15 ± 1 days
patients with satisfactory outcome ([3]; inhaled, of the remaining ten evaluated patients): nine
recurrence of PCP at follow-up ([3]; inhaled, remaining six, one to nine months following discharge): no recurrence of PCP
Time to discharge ([3]; inhaled, single patients): 9 days
patients with satisfactory outcome ([3]; intravenous): Eight of nine
Outcome of therapy ([3]; intravenous, 3 mg/Kg, single patients): success; also recorded: failed
Time to discharge, all patients in group ([3]; intravenous, based on 8 successful patients): 14 ± 2 days
relapses at follow-up ([3]; intravenous, four patients, five to six months): no reported relapses
rate of severe reactions [4]: 50%
Pneumothorax, Known etiology ([5]; 30 mg): 5
Pneumothorax, Spontaneous ([5]; 30 mg): 2
Significant Cough ([5]; 30 mg): 31%
Treatments stopped due to cough ([5]; 30 mg): 0%
Used Bronchodilators ([5]; 30 mg): 7.5%
Withdrew, Adverse Effects ([5]; 30 mg): 2
Pneumothorax, Known etiology ([5]; 150 mg): 5
Pneumothorax, Spontaneous ([5]; 150 mg): 3
Significant Cough ([5]; 150 mg): 40%
Treatments stopped due to cough ([5]; 150 mg): 0.2%
Used Bronchodilators ([5]; 150 mg): 14%
Withdrew, Adverse Effects ([5]; 150 mg): 11
Pneumothorax, Known etiology ([5]; 300 mg): 3
Pneumothorax, Spontaneous ([5]; 300 mg): 3
Significant Cough ([5]; 300 mg): 38%
Treatments stopped due to cough ([5]; 300 mg): 0.7%
Used Bronchodilators ([5]; 300 mg): 20%
Withdrew, Adverse Effects ([5]; 300 mg): 10
significant coughing during a treatment ([5]; all participants): 36%
wheezing during a treatment ([5]; all participants): 11%
participants who used bronchodilators during treatment ([5]; human, in vivo): Fourteen
rash, participants ([5]; human, in vivo): One
spontaneous pneumothorax ([5]; human, in vivo): Eight
stopped due to interstitial pneumonitis, participants ([5]; human, in vivo): One
treatments ended by cough ([5]; human, in vivo): 0.3%
treatments interrupted by cough ([5]; human, in vivo): 0.5%
withdrew after pneumothoraces, participants ([5]; human, in vivo): four
minor toxicity (rash), patients ([6]; inhaled): One
major toxicity ([6]; inhaled, patients also received AZT): 20%
minor toxicity (elevated serum creatinine, depressed leukocyte count), patients ([6]; intravenous): four
required a change of therapy due to toxicity ([6]; intravenous): 11%
major toxicity ([6]; intravenous, hepatotoxicity): 22%
only frequent adverse effect observed clinically [7]: transient airway irritation
less common adverse effects ([8]; human, in vivo): cardiac arrhythmias and pancreatitis
local reactions at site of intramuscular injection ([8]; intramuscular): Pain, swelling and sterile abscesses
generalized or local reactions, intravenous ([8]; intravenous): thrombophlebitis and generalized or localized urticarial eruptions
hypoglycemia ([8]; parenteral): Hypoglycemia has also been reported
impaired renal function ([8]; parenteral): about 25%
other common adverse reactions ([8]; parenteral): elevation of liver enzymes, hematologic disturbances with neutropenia and thrombocytopenia, fever, hypocalcemia, and hallucinations
hypotension ([8]; single intramuscular dose or rapid intravenous infusion): Severe hypotension
mild cough controlled by metaproterenol, patients (aerosol): 9 patients
severe coughing, patients (aerosol, all smokers): 3 patients
adverse systemic reactions (renal, liver, hematologic, hypoglycemia, hypotension) (in vivo): No adverse systemic reactions
air-way obstruction (in vivo): Neither clinical nor spirometric evidence of air-way obstruction occurred
clinical bronchospasm (in vivo): not seen
coughing with therapy, patients (in vivo): Twelve
Toxicity Req Change of Therapy (n = 15): 0(0) n (%)
PaO2 ([9]; post therapy, TMP-DPS only 8 patients tested): 87.2 torr
DLCO ([9]; post therapy): 62
Vital Capacity ([9]; post therapy): 80
DLCO ([9]; pre therapy): 59.0
PaO2 ([9]; pre therapy): 69.3 torr
Vital Capacity ([9]; pre therapy): 70
dyspnea, respiratory rate and fever ([10]; all 13 patients treated successfully): marked reduction
patients who died of progressive respiratory failure ([10]; concomitant tuberculosis, changed to TMP-SMX day 7): One
clinical improvement during second week, patients ([10]; in vivo): 3 patients
clinical improvement in first week, patients ([10]; in vivo): Ten
Successful Treatment w/ Change ([10]; n = 15): 14(93) n (%)
Successful Treatment w/o Change ([10]; n = 15): 13(86) n (%)
worsened infiltrates at one week with subsequent improvement, patients ([10]; of 13): Five
worsened or no improvement for first two weeks, then improvement, patients ([10]; of 13): 4 patients
radiographic improvement beginning by second week, patients ([10]; of 13 patients treated successfully): 4
average hospital stay ([10]; patients treated successfully): 8 days
dose remaining in the nebulizer after inhalation [11]: approximately one third
attack rate at 6.38 months ([12]; 300 mg twice or 600 mg once per month, p<0.01 vs previous study): 3%
deaths associated with PCP ([12]; 3 deaths): 2%
deaths due to other causes ([12]; 9 deaths): 6%
evaluable patients who died ([12]; 12 of 146): 8%
microscopic airway changes [13]: no microscopic airway changes
prophylaxis discontinued due to bronchospasm, patients [14]: one
